From US20110039825A1, “LIGANDS OF ALPHA-ADRENOCEPTORS, DOPAMINE, HISTAMINE, IMIDAZOLINE AND SEROTONIN RECEPTORS AND THEIR USE” (Alla Chem, LLC, priority 2007, published 2011)
Blank lines part the entries; values can stand above or below the compound they belong to.

Assays:
imidazoline receptor I2 = assay: radioligand binding to imidazoline receptor I2 ([3H] Idazoxan); design: species or system rat; conditions: 10 μM ligand
Procedure: Determination of investigated compounds' binding to imidazoline I2 receptor is carried out according to the method described in [Brown C M, MacKinnon A C, McGrath J C, Spedding M and Kilpatrick A T, a2-Adrenoceptor subtypes and imidazoline-like binding in the rat brain. Br J. Pharmacol. 99:803-809, 1990]. […] Idazoxan is used as positive control.

[1] = molecular target: T1, recombinant human 5-HT2C receptor (Homo sapiens, UniProt P28335); assay: radioligand binding to serotonin receptor 5-HT2C ([3H] Mesulergine); conditions: 10 μM ligand
T1 construct: expressed in transfected cells; host or cells: CHO-K1
T1 sequence (P28335 33-458): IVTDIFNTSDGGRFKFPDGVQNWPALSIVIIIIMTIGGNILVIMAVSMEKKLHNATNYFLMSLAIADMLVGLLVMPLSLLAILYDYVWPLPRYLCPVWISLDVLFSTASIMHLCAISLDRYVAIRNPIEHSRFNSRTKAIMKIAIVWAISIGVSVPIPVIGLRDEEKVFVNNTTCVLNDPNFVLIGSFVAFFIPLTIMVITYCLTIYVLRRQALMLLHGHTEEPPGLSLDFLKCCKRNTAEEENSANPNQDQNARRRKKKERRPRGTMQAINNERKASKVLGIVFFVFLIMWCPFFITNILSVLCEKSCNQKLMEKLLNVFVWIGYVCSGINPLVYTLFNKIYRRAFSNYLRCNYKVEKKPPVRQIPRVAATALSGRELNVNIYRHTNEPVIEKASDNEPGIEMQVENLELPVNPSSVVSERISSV
From the text: J. Neurochem. 69: 1449-1458, 1997]. […] SB242084 is used as positive control.

[2] = molecular target: T2, recombinant human 5-HT2B receptor (Homo sapiens, UniProt P41595); assay: radioligand binding to serotonin receptor 5-HT2B ([3H] Lysergic acid diethylamide); conditions: for 5-HT2B % inhibition: 10 μM ligand
T2 construct: expressed in transfected cells; host or cells: CHO-K1

recombinant human 5-HT1A = molecular target: T3, recombinant human 5-HT1A (Homo sapiens, UniProt P08908); assay: radioligand binding to serotonin receptor 5-HT1A ([3H] 8-OH-DPAT); conditions: 10 μM ligand
T3 construct: expressed in transfected cells; host or cells: CHO
T3 sequence (P08908 1-422): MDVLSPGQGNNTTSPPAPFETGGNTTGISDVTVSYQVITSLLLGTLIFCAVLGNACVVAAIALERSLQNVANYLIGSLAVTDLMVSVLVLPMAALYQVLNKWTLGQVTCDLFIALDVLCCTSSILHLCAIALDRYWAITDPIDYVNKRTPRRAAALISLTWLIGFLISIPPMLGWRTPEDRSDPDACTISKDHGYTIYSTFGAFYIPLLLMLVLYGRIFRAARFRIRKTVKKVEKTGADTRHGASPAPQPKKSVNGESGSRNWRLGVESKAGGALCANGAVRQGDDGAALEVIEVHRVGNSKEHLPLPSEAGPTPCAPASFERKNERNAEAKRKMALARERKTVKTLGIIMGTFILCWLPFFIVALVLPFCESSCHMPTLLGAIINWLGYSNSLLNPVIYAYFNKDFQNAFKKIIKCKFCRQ
From the text: J Pharmacol Exp Ther. 306(1): 301-309, 2003]. […] Metergoline is used as positive control.

human α2A receptor = molecular target: T4, human α2A receptor (Homo sapiens, UniProt P08913); assay: radioligand binding to adrenergic receptor α2A ([3H] MK-912)
T4 construct: expressed in transfected cells; host or cells: Sf9
T4 sequence (P08913 1-465): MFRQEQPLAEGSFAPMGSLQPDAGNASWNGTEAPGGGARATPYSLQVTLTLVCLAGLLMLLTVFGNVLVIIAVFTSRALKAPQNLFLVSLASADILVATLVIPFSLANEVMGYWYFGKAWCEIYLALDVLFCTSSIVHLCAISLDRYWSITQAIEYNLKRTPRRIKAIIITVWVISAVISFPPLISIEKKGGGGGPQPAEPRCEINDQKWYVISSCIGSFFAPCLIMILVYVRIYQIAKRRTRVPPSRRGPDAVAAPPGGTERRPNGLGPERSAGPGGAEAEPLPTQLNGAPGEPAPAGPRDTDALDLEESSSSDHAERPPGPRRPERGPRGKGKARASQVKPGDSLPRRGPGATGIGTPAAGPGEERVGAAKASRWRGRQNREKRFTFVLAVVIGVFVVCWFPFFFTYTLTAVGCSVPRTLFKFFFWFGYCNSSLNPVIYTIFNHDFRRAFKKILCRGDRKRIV
From the text: J Pharmacol ExpTher. […] Yohimbine is used as positive control.

human α1D receptor = molecular target: T5, human α1D receptor (Homo sapiens, UniProt P25100); assay: radioligand binding to adrenergic receptor α1D ([3H] Prazosin)
T5 construct: expressed in transfected cells; host or cells: HEK-293
T5 sequence (P25100 1-572): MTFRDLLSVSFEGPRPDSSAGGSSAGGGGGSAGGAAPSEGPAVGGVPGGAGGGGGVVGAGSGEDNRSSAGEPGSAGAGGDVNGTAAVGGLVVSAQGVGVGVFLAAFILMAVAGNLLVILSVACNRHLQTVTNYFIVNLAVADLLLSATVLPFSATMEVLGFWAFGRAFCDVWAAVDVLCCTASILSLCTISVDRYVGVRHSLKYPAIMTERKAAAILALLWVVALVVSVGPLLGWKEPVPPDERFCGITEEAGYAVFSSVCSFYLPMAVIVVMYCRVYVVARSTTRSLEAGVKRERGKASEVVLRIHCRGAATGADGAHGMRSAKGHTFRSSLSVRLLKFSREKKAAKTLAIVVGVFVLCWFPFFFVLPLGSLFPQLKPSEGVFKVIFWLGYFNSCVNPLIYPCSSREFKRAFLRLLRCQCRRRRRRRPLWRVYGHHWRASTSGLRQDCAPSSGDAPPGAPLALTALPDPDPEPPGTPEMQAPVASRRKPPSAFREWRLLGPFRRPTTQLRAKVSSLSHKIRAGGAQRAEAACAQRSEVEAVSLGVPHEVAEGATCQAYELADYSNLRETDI
From the text: 6-C. […] For this purpose sDNA of human α1D receptor is expressed in HEK-293 cells, as it was described in [T L Theroux, T A Esbenshade, R D Peavy and K P Minneman. Coupling efficiencies of human alpha 1-adrenergic receptor subtypes: titration of receptor density and responsiveness with inducible and repressible expression vectors. Mol. Pharmacol.; 50: 1376-1387, 1996]. […] Prazosin is used as positive control.

adrenergic receptor α1B = molecular target: T6, adrenergic receptor α1B (Rattus norvegicus, UniProt P15823); assay: radioligand binding to adrenergic receptor α1B ([3H] Prazosin)
T6 construct: membrane species from rat liver (rat of Wistar breed) are prepared; from tissue; host or cells: rat (Wistar) liver membranes
T6 sequence (P15823 1-515): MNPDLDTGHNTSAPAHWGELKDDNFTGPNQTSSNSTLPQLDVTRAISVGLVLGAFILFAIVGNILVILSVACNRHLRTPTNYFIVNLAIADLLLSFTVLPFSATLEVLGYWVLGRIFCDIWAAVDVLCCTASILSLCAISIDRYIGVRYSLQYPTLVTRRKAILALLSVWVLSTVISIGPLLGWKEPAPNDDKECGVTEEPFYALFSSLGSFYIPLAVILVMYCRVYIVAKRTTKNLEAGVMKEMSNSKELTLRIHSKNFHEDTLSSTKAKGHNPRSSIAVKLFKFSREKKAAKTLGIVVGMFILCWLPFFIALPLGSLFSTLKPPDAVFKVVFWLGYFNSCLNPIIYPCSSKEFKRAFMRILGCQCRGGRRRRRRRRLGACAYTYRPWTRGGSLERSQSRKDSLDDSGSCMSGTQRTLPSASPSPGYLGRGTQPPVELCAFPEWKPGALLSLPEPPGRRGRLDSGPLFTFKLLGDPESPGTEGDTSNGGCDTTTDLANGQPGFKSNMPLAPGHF
From the text: Species heterogeneity of hepatic α1A-, α1B-, and α1C-subtypes. Biochem Biophys Res Commun. 186:760-7676 1992]. […] Prazosin is used as positive control.

adrenergic receptor α1A = molecular target: T7, adrenergic receptor α1A (Rattus norvegicus, UniProt P43140); assay: radioligand binding to adrenergic receptor α1A ([3H] Prazosin)
T7 construct: membrane species from rat submaxillary glands (rat of Wistar breed) are prepared; from tissue; host or cells: rat (Wistar) submaxillary gland membranes
T7 sequence (P43140 1-466): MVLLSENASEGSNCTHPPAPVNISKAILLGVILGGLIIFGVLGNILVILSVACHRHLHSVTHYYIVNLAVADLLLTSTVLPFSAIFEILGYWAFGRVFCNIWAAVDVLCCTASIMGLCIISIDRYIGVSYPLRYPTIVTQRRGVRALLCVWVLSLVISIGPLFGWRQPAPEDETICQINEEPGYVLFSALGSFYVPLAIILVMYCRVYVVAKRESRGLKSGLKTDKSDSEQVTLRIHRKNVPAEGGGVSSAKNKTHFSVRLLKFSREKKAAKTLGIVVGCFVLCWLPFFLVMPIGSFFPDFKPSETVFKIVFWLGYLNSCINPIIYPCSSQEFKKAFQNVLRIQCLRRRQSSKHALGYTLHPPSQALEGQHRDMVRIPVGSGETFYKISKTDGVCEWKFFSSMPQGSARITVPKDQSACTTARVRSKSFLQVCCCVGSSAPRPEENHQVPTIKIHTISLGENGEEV
Procedure: Determination of investigated compounds' binding to α1A receptor was carried out according to the method described in [Michel A D, Loury D N and Whiting R l. Identification of a single α1A-adrenoceptor corresponding to the α1A-subtype in rat submaxillary gland. Br J. Pharmacol. 98:883-889, 1989]. […] Prazosin is used as positive control.

human 5-HT7 receptor = molecular target: T8, human 5-HT7 receptor (Homo sapiens, UniProt P34969); assay: radioligand binding to serotonin receptor 5-HT7 ([3H] Lysergic acid diethylamide); conditions: 10 μM ligand
T8 construct: expressed in transfected cells; host or cells: CHO
From the text: For this purpose sDNA of human 5-HT7 receptor is expressed in CHO cells as it was described in [Shen Y, Monsma F J Jr, Metcalf M A, Jose P A, Hamblin M W, and Sibley DR. […] J. Biol. Chem. 1993, 268, 18200-18204]. […] J. Pharmacol. Exp. Ther. 1994, 268:1403-1410]. […] Methiothepin is used as positive control.

[3] = molecular target: T9, recombinant human 5-HT6 receptor (Homo sapiens, UniProt P50406); assay: radioligand binding to serotonin receptor 5-HT6 ([3H] Lysergic acid diethylamide); conditions: 10 μM ligand
T9 construct: expressed in transfected cells; host or cells: HeLa
From the text: Mol. Pharmacol. 43:320-327, 1993]. […] Methiothepin is used as positive control.

T2 sequence (P41595 whole entry): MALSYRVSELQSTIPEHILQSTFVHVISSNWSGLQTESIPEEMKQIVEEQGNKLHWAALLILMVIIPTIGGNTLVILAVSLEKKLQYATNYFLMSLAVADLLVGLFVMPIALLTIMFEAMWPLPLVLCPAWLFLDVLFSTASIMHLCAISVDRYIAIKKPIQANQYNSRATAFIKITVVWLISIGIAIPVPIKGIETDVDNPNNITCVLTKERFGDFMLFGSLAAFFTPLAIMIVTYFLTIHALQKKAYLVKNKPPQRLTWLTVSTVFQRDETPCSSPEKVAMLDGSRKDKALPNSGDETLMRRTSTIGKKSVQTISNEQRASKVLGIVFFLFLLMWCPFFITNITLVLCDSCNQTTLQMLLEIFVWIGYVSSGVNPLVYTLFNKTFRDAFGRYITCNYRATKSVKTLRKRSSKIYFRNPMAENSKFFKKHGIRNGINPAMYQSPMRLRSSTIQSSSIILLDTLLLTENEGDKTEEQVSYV
T8 sequence (P34969 whole entry): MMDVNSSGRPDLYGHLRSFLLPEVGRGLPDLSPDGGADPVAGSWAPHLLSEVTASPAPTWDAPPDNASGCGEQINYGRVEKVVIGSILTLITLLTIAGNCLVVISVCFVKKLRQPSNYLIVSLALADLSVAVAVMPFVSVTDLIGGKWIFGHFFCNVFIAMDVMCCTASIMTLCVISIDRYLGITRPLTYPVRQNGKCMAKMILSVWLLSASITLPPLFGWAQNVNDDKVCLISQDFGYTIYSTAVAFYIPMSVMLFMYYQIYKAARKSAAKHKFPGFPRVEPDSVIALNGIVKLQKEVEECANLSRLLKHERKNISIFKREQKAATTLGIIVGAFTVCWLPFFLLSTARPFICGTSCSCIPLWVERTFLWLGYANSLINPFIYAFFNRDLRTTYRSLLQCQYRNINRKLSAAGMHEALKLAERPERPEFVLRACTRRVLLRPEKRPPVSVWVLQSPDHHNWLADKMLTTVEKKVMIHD
T9 sequence (P50406 whole entry): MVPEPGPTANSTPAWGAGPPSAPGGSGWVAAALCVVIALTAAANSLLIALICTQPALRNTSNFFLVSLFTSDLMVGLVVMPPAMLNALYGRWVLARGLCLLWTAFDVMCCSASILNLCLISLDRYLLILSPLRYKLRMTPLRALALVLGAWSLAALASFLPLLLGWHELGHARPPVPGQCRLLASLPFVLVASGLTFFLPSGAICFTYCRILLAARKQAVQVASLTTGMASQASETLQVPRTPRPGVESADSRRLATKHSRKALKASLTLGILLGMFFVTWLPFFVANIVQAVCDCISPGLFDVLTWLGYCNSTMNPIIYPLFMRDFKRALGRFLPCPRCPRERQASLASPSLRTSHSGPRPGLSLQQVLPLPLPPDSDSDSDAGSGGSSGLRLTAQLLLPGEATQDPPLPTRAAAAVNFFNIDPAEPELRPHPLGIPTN

SMILES: Cc1ccc2c(c1)[C@@H]1CN(C)CCC[C@@H]1N2CCc1cccnc1.Cl.Cl.Cl (relative stereo) [1.6.1(1)•3HCl]
imidazoline I2 receptor % inhibition (imidazoline receptor I2): 80%

SMILES: CN1CCc2c(c3cc(F)ccc3n2C#Cc2ccccc2)C1 [1.1(2)]
5-HT2C % inhibition [1]: 100% | 5-HT2B % inhibition [2]: 92%

SMILES: Cc1ccc2c(c1)c1c(n2CCc2ccccc2)CCN(C)C1.Cl [1.1.2(1-2)•HCl, 2,8-dimethyl-5-phenethyl-1,2,3,4-tetrahydro-1H-pyrido[4,3-b]indole hydrochloride]
5-HT1A % inhibition (recombinant human 5-HT1A): 84% | IC50 [2]: 0.0166 µM | Ki [2]: 0.0106 µM | nH 5-HT2B [2]: 0.868 | 5-HT2B % inhibition [2]: 100% | imidazoline I2 receptor % inhibition (imidazoline receptor I2): 93%

IC50 (human α2A receptor): 0.00472 µM | Ki (human α2A receptor): 0.00177 µM | IC50 (human α1D receptor): 0.0615 µM | Ki (human α1D receptor): 0.0302 µM | IC50 (adrenergic receptor α1B): 0.017 µM | Ki (adrenergic receptor α1B): 0.0094 µM | IC50 (adrenergic receptor α1A): 0.0467 µM | Ki (adrenergic receptor α1A): 0.0189 µM
SMILES: Cc1ccc(CCn2c3c(c4cc(C)ccc42)CN(C)CC3)cc1 [1.1.2(1-3), 2,8-dimethyl-5-[2-(4-methylphenyl)-ethyl]-1,2,3,4-tetrahydro-1H-pyrido[4,3-b]indole]

5-HT7 % inhibition (human 5-HT7 receptor): 94%
SMILES: CN1CCc2c(c3cc(C(F)(F)F)ccc3n2CCc2ccccc2)C1.Cl [1.1.2(1-7)•HCl, 2-methyl-8-trifluoromethyl-5-phenethyl-1,2,3,4-tetrahydro-1H-pyrido[4,3-b]indole]

SMILES: CN1CCc2c(c3cc(F)ccc3n2CC(O)c2ccccc2)C1 (stereo not shown) [1.1.2(1-9)]
5-HT2C % inhibition [1]: 89% | 5-HT2B % inhibition [2]: 50%

SMILES: Cc1ccc2c(c1)c1c(n2CC(O)c2ccccc2)CCN(C)C1 (stereo not shown) [1.1.2(1-10), 2,8-dimethyl-5-[(2-phenyl-2-hydroxy)ethyl]-1,2,3,4-tetrahydro-1H-pyrido[4,3-b]indole]
5-HT2C % inhibition [1]: 96% | 5-HT2B % inhibition [2]: 79%

5-HT1A % inhibition (recombinant human 5-HT1A): 57% | 5-HT6 % inhibition [3]: 108% | 5-HT7 % inhibition (human 5-HT7 receptor): 100%
SMILES: COc1ccc(CCn2c3c(c4cc(C)ccc42)CN(C)CC3)cc1.Cl [1.1.2(1-14)•HCl]
